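Exposure lasted 48 hours, with cells grown in 96-well plates and compounds tested at five concentrations. Here, GI50 denotes the concentration required for 50% inhibition of growth. TGI marks complete inhibition of growth.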
How the values were obtained:
Assay in all cases: NCI anticancer screen, dose series, 48 h
[1] = tested on: RXF 393 renal
[2] = tested on: HOP-92 NSCLC
[3] = tested on: OVCAR-8 ovarian
[4] = tested on: CAKI-1 renal
[5] = tested on: UACC-62 melanoma
[6] = tested on: HCT-116 colon
[7] = tested on: HL-60(TB) leukemia
[8] = tested on: HCT-15 colon
[9] = tested on: OVCAR-4 ovarian
[10] = tested on: K-562 leukemia

Structure (SMILES)	TGI [1]	TGI [2]	TGI [3]	TGI [4]	TGI [5]	TGI [6]	TGI [7]	TGI [8]	TGI [9]	TGI [10]	GI50 [1]	GI50 [2]	GI50 [3]	GI50 [4]	GI50 [5]	GI50 [6]	GI50 [7]	GI50 [8]	GI50 [9]	GI50 [10]
O=C(O)c1cccc(OCCO)c1	> 100 µM	> 100 µM	> 100 µM	> 100 µM	> 100 µM	> 100 µM	> 100 µM	> 100 µM	> 100 µM	> 100 µM										
O=[N+]([O-])c1ccc(-n2nnc(C3=NCCCN3)c2-c2ccc(Cl)cc2)cc1	> 100 µM	> 100 µM	> 100 µM	> 100 µM	> 100 µM	> 100 µM	> 100 µM	> 100 µM	> 100 µM	> 100 µM										
COC(=O)C12C3C4C5(C(=O)OC)C(C1C35C(=O)N(C(C)C)C(C)C)C42C(=O)N(C(C)C)C(C)C (stereo unspecified)	> 50 µM	> 50 µM	> 50 µM	> 50 µM	> 50 µM	33.6 µM	> 50 µM	> 33.7 µM	> 50 µM	> 50 µM										
N#CC(C#N)=c1[nH]c2cccc3c2-c2c(cccc2c3=C(C#N)C#N)[nH]1	> 100 µM	> 100 µM	> 100 µM	> 100 µM	> 100 µM	> 100 µM	> 100 µM	> 100 µM	> 100 µM	> 100 µM										
COC(=O)[C@@H](NC(=O)[C@@H](OC)[C@@H]1Cc2cc3cc(OC4CC(OC5CC(O)C(O)C(C)O5)C(O)C(C)O4)c(C)c(O)c3c(O)c2C(=O)[C@H]1OC1CC(OC2CC(OC3CC(C)(O)C(O)C(C)O3)C(O)C(C)O2)C(O)C(C)O1)C(C)C (stereo partly specified)	0.427 µM	1.13 µM	> 32.5 µM	1.67 µM	0.409 µM	> 32.5 µM	> 32.5 µM	> 32.5 µM	14 µM	> 32.5 µM	0.0822 µM	0.101 µM	0.15 µM	0.107 µM	0.0731 µM	0.0934 µM	0.348 µM	0.181 µM	0.166 µM	0.139 µM
COC(=O)/C=C/C1C(C(=O)OC)C2(C(=O)OC)CCC1(C(=O)OC)N2 (stereo unspecified)	> 100 µM	> 100 µM	> 100 µM	> 100 µM	> 100 µM	> 100 µM	> 100 µM	> 100 µM	> 100 µM	> 100 µM										
N#CC(C(=O)/C(=N/Nc1nc(=S)[nH]n1N)C(C#N)c1ccccc1)c1ccccc1 (stereo unspecified)	> 100 µM	> 100 µM	> 100 µM	> 100 µM	> 100 µM	> 100 µM	> 100 µM	> 100 µM	> 100 µM	> 100 µM										
N#CC(/C(=N/NC(=O)C(=O)NN)C(=O)NC12CC3CC(CC(C3)C1)C2)c1ccccc1 (stereo unspecified)	> 100 µM	> 100 µM	> 100 µM	> 100 µM	> 100 µM	> 100 µM	> 100 µM	> 100 µM	> 100 µM	> 100 µM										
CC(=O)OCC1OC([S-])C(OC(C)=O)C(OC(C)=O)C1OC(C)=O.CC[PH+](CC)CC.CC[PH+](CC)CC.[Au].[Au] (stereo unspecified)	0.197 µM	0.584 µM	1.52 µM	0.987 µM	0.307 µM	1.7 µM	0.0214 µM	0.452 µM	1.88 µM	0.337 µM	0.0434 µM	0.28 µM	0.371 µM	0.292 µM	0.119 µM	0.397 µM		0.165 µM	0.506 µM	0.0834 µM
Cc1cc(C)n(CCNCCn2nc(C)cc2C)n1	> 100 µM	> 100 µM	> 100 µM	> 100 µM	> 100 µM	> 100 µM	> 100 µM	> 1 µM	> 100 µM	> 100 µM										
COc1cc2c(cc1OCc1ccccc1)CNCC2	> 100 µM	> 100 µM	> 100 µM	> 100 µM	> 100 µM	> 100 µM	> 100 µM	> 100 µM	> 100 µM	> 100 µM										
CCOC(=O)N1CCN(C(=O)c2ccc(C(F)(F)F)nc2Nc2cc(Cl)ccc2C)CC1	65.2 µM	> 100 µM	> 100 µM	64.5 µM	25.6 µM	30.1 µM	38 µM	> 100 µM	55.1 µM	> 100 µM	14 µM	10.2 µM	30.2 µM	21.1 µM	10 µM	12.3 µM	12.1 µM	23.1 µM	11.8 µM	6.31 µM
O=C(CN1CCCCC1)N1CCc2c([nH]c3ccccc23)C1c1cccnc1 (stereo unspecified)	> 100 µM	> 100 µM	> 100 µM	> 100 µM	> 100 µM	> 100 µM	> 100 µM	> 100 µM	> 100 µM	> 100 µM										
O=C(O)c1cc(O)c2c(c1)C(C1c3cc(C(=O)O)cc(O)c3C(=O)c3c(OC4OC(CO)C(O)C(O)C4O)cccc31)c1cccc(OC3OC(CO)C(O)C(O)C3O)c1C2=O (stereo unspecified)	> 100 µM	> 100 µM	> 100 µM	> 100 µM	> 100 µM	> 100 µM	> 100 µM	> 100 µM	> 100 µM	> 100 µM	> 100 µM	> 100 µM	> 100 µM	> 100 µM	> 100 µM	> 100 µM	> 100 µM	> 100 µM	> 100 µM	> 100 µM
COc1ccc(CNc2c3ccccc3nc3ccccc23)cc1OC	3.64 µM	7.83 µM	12.1 µM	6.33 µM	7.46 µM	10.9 µM	10 µM	7.17 µM	7.99 µM	25.2 µM	1.49 µM	1.62 µM	2.17 µM	1.87 µM	2.42 µM	0.944 µM	2.96 µM	2.2 µM	2.39 µM	2.34 µM
O=S(O)CCCCSSCc1ccccc1CSSCCCCS(=O)O	22.8 µM	74.7 µM	89.5 µM	81.8 µM	25.3 µM		36.2 µM	> 100 µM	18.3 µM	82.3 µM										
O=C(O)c1c(-c2nccc3ccccc23)[nH]c(-c2ccccc2)c1S(=O)(=O)O	> 100 µM	> 100 µM	> 100 µM	> 100 µM	> 100 µM	> 100 µM	> 100 µM	> 100 µM	> 100 µM											
CCOC(=O)c1[nH]c(COC(C)=O)c(CCCOC(C)=O)c1CCCOC(C)=O	> 100 µM	> 100 µM	> 100 µM	> 100 µM		> 100 µM	> 100 µM	> 100 µM	> 100 µM	> 100 µM										
